# According to patent publication US20250339569A1, “CARBONIC ANHYDRASE IX LIGANDS” (priority 2021, published 2025):
# Where two headings read alike, the source gives them in different places.
# Experiments:
# [1] = Pharmacokinetic characterization in healthy dogs; assay type: in vivo, beagle dogs; conditions: dog; for AUC(0-inf) / Cmax / clearance / half-life / Vd / CL renal: male, beagle, iv; for AUC(0-inf) / Cmax / clearance / half-life / Vd: plasma; for half-life: read-out: terminal half-life (T1/2) (converted); for Vd: read-out: volume of distribution; for CL renal: urine and plasma, read-out: estimated renal clearance
# Description: The pharmacokinetics of DPI-4452 after a single intravenous (i.v.) dose was investigated in healthy dogs. […] Plasma and urine samples collected after dosing were analyzed using a LC-HRMS (liquid chromatography coupled with high-resolution mass spectrometry) assay method. Concentration values were used for pharmacokinetic calculations.
# DPI 4452 was formulated in 0.1 M HEPES pH 7.0 at the final concentrations of 0.05 and 0.4 mg/mL for dosing at 0.1 and 0.8 mg/kg, respectively. Male beagle dogs (3 animals per dose level; overall 8.9 to 12.4 kg body weight) were administered intravenously (bolus) in a 2 mL/kg dosing volume. Blood samples were collected in K2EDTA tubes at 5 min, 15 min, 30 min, 1 h, 2 h, 4 h, 6 h, 24 h, and urine was collected over 24 hours post dose. The blood samples were kept on wet ice until plasma separation by centrifugation within 60 min after sampling. The plasma samples were transferred into plastic tubes, frozen and stored at −80° C. until analysis.
# Plasma and urine samples were analyzed by […] after solid phase extraction, using DPI-4501 as internal standard. Chromatographic separation was run on a Waters Acquity HSS T3 C18 2.1×50 mm, 1.8 μm column. Detection was achieved on a Sciex API6600 TOF mass spectrometer. The lower limit of quantification was 2.00 ng/mL in urine and plasma.
# The NCA pharmacokinetic analysis of plasma concentration data was conducted using Phoenix WinNonlin 6.3 software. Nominal doses were used for all animals. The terminal phase half-life (T1/2) was calculated by least-squares regression analysis of the terminal linear part of the log concentration-time curve. The area under the plasma concentration-time curve (AUC) was determined with the linear trapezoidal rule for increasing values and log trapezoidal rule for decreasing values up to the last measurable concentration.
# [2] = Biodistribution study (SPECT/CT) in SK-RC-52 tumor-bearing mice with or without gelofusine; assay type: in vivo, NMRI nude mice; conditions: female, NMRI nude, mouse, in vivo, iv, total radioactivity
# Description: The effect on tumor uptake of prior injection of gelofusine for kidney protection was investigated in mice bearing the SK-RC-52 tumor. Biodistribution was evaluated using in vivo SPECT/CT imaging. Prior to the in vivo study the compounds (ligands) were initially radiolabeled with In-111 and the stability of radiolabeled compounds was evaluated in buffer at three different timepoints.
# The study was performed in female NMRI nude mice (approximately 6 weeks of age) from Janvier Labs, France, housed up to 5 mice per cage.
# The column was washed with 2 mL water, and then the final product was eluted from the column in EtOH solution (50%) • The sample was formulated in PBS to the final concentration of 150 MBq/mL and 5 nmol/mL.
# SK-RC-52 cells were cultured in RPMI 1640 with GlutaMax-I (Thermo Fisher Scientific #61870044) supplemented with 10% fetal bovine serum+1% penicillin/streptomycin, harvested, washed twice in RPMI 1640 and resuspended at 2×10^7 cells/mL in RPMI 1640. HT-29 cells were cultured in McCoy's 5a Medium Modified (Sigma #M9309). For inoculation of HT-29 cells, cells were harvested, washed twice in PBS and resuspended at 5×10^7 cells/mL in PBS. Cells were kept on ice until inoculation.
# Animals were anaesthetized (isoflurane, 2-4% in ambient air supplemented with 100% 02) prior to tumor inoculation. The tumor cells (100 μL suspension of either SK-RC-52 cells (2×10^6 cells/animal) or HT-29 cells (5×10^6 cells/animal)) were subcutaneously inoculated in the right flank using a 1-mL syringe equipped with a 27 G needle. Tumor growth and animal weight were measured twice per week. Tumor size was measured by caliper and the volume was estimated using the following formula: 0.52×(length×width^2). When tumor sizes reached 150-250 mm^3, animals were randomized into groups (n=3) of similar average tumor volume and body weight.
# Animals were injected intravenously with In-111-labeled compounds (single bolus, 22.3-31.2 MBq, ˜1 nmol ligand, injection volume: 100 μL) in the lateral tail vein using a 29 G syringe.
# CT was performed with helical scan, 300 ms exposure, reconstruction resolution of 250 μm. SPECT was performed with multi-pinhole scan and a 30 s frame time. For the quantification of the radioactivity uptake, regions of interests (ROIs) were drawn over the tumor, kidney, liver, and heart (estimate of blood) identified on the images. Uptake was expressed as percent of injected dose per gram tissue (% ID/g).
compound,measurement,setting,value
"CC(C)C[C@@H]1NC(=O)[C@H](Cc2cccc(NC(=O)CCCS(N)(=O)=O)c2)NC(=O)[C@H](CC(=O)O)NC(=O)[C@H]2CCCN2C(=O)[C@H](CCC(=O)O)NC(=O)[C@@H](NC(=O)[C@H](CCC(N)=O)NC(=O)CN2CCN(C(=O)CN3CCN(CC(=O)O)CCN(CC(=O)O)CCN(CC(=O)O)CC3)CC2)CSCc2cccc(c2)CSC[C@@H](C(N)=O)NC(=O)[C@H](CO)NC(=O)[C@H](Cc2c[nH]c3ccccc23)NC(=O)[C@H]([C@@H](C)O)NC1=O [DPI-4452, DOTA-PPAc-Gln-[Cys(3MeBn)-Glu-pro-Asp-Af3(Cpsu)-Leu-Thr-Trp-Ser-Cys]-NH2]",time up to which plasma concentration was quantifiable,[1]; i.v. 0.1 mg/kg,up to 2 h
same,time up to which plasma concentration was quantifiable,[1]; i.v. 0.8 mg/kg,≤ 4 h
same,AUC(0-inf),[1]; i.v. 0.1 mg/kg,133 ng·h/mL
same,Cmax,[1]; i.v. 0.1 mg/kg,377 ng/mL
same,clearance,[1]; i.v. 0.1 mg/kg,12.7 mL/min/kg
same,half-life,[1]; i.v. 0.1 mg/kg,22.8 min
same,Vd,[1]; i.v. 0.1 mg/kg,0.26 L/kg
same,AUC(0-inf),[1]; i.v. 0.8 mg/kg,1760 ng·h/mL
same,Cmax,[1]; i.v. 0.8 mg/kg,4430 ng/mL
same,clearance,[1]; i.v. 0.8 mg/kg,7.6 mL/min/kg
same,half-life,[1]; i.v. 0.8 mg/kg,28.8 min
same,Vd,[1]; i.v. 0.8 mg/kg,0.19 L/kg
same,CL renal,[1]; i.v. 0.1 mg/kg,0.0344 mL/min/kg
same,CL renal,[1]; i.v. 0.8 mg/kg,0.0114 mL/min/kg
same,tissue uptake at 4 h,"[2]; SK-RC-52, In-111-labeled, 4% gelofusine before, Mean ± SEM, read-out: Blood uptake at 4 h p.i.",0.03 ± 0.01 %ID/g
same,tissue uptake at 24 h,"[2]; SK-RC-52, In-111-labeled, 4% gelofusine before, Mean ± SEM, read-out: Kidney uptake at 24 h p.i.",0.73 ± 0.2 %ID/g
same,tissue uptake at 4 h,"[2]; SK-RC-52, In-111-labeled, 4% gelofusine before, Mean ± SEM, read-out: Liver uptake at 4 h p.i.",0.12 ± 0.01 %ID/g
same,tissue uptake,"[2]; SK-RC-52, In-111-labeled, 4% gelofusine before, Mean ± SEM, read-out: Peak Kidney uptake",1.84 ± 0.14 %ID/g
same,tissue uptake at 4 h,"[2]; SK-RC-52, In-111-labeled, no gelofusine, Mean ± SEM, read-out: Blood uptake at 4 h p.i.",0.05 ± 0.01 %ID/g
same,tissue uptake at 24 h,"[2]; SK-RC-52, In-111-labeled, no gelofusine, Mean ± SEM, read-out: Kidney uptake at 24 h p.i.",0.95 ± 0.05 %ID/g
same,tissue uptake at 4 h,"[2]; SK-RC-52, In-111-labeled, no gelofusine, Mean ± SEM, read-out: Liver uptake at 4 h p.i.",0.18 ± 0.04 %ID/g
same,tissue uptake,"[2]; SK-RC-52 tumor mice, In-111-labeled, 4% gelofusine immediately before, Mean ± SEM, N=3, read-out: Peak Tumor Uptake",13.4 ± 0.39 %ID/g
"CC(C)C[C@@H]1NC(=O)[C@H](Cc2cccc(NC(=O)CCCS(N)(=O)=O)c2)NC(=O)[C@H](CC(=O)O)NC(=O)[C@H]2CCCN2C(=O)[C@H](CCC(=O)O)NC(=O)[C@@H](NC(=O)[C@H](CCC(N)=O)NC(=O)CN2CCN(C(=O)CN3CCN(CC(=O)O)CCN(CC(=O)O)CCN(CC(=O)O)CC3)CC2)CSCc2cccc(c2)CSC[C@@H](C(N)=O)NC(=O)[C@H](CO)NC(=O)[C@H](Cc2c[nH]c3ccccc23)NC(=O)[C@H]([C@@H](C)O)NC1=O [[^111In]In-DPI-4452, metal not drawn]",tissue uptake,"[2]; SK-RC-52 model, with gelofusine, 1-2 hours post injection, read-out: peak kidney uptake",1.84 ± 0.14 %ID/g
same,tissue uptake at 24 h,"[2]; SK-RC-52 model, with gelofusine, 24 hours post injection, read-out: kidney uptake",0.73 ± 0.02 %ID/g
same,tissue uptake at 24 h,"[2]; SK-RC-52 model, without gelofusine, 24 hours post injection, read-out: kidney uptake",0.95 ± 0.05 %ID/g
same,tissue uptake,"[2]; SK-RC-52 tumor, 4% gelofusine immediately before, peak at 4 hours (DPI-4452) or 1 hour (DPI-4501), mean±SEM, read-out: peak tumor uptake",13.4 ± 0.39 %ID/g
same,tissue uptake,"[2]; summary over tumor models, read-out: peak tumor uptake, typical (conclusion)",7 %ID/g
